In brackets after ≈: the same amount, converted by molar mass.

We go through three compounds from ChEMBL document CHEMBL1144063, “ent-kaurane diterpenoids from Isodon lungshengensis” (J Nat Prod, 1999).

This assay concerns K562. Put plainly: Cytotoxicity against human K-562 cells by MTT assay. The class given is functional, cell-based.
In turn, `C=C1C(=O)[C@]23C[C@H]1C[C@H](O)[C@H]2[C@@]1(C)[C@H]([C@@H](O)C3)C(C)(C)[C@@H](OC(C)=O)[C@@H](OC(C)=O)[C@@H]1O` [LUNGSHENGENIN A] returned an IC50 of 11.7 µg/mL (≈ 26 µM).
In the case of `C=C1C(=O)[C@]23C[C@H]1C[C@H](O)[C@H]2[C@]1(C)C[C@H](OC(C)=O)[C@H](OC(C)=O)C(C)(C)[C@H]1[C@@H](OC(C)=O)C3` [LUNGSHENGENIN C], the IC50 was determined as 1.14 µg/mL (≈ 2.39 µM).
Regarding `C=C1C(=O)[C@@]23CC(=O)[C@@H]4C(C)(C)[C@@H](OC(C)=O)[C@@H](OC(C)=O)[C@H](O)[C@@]4(C)[C@@H]2[C@@H](O)C[C@@H]1C3` [LUNGSHENGENIN G], inhibition was half-maximal at 3.29 µg/mL (≈ 7.34 µM) (IC50).
